Here are results for one molecule from patent EP0329053A1, “Choline esters of glycerophosphoric acids” (MAGIS FARMACEUTICI S.p.A., priority 1988, dated 1989).

The data set is described as follows: Acute toxicity by the Weill method. The settings on record: in vivo, mouse, read-out: LD₅₀. As for the experimental part:
The acute toxicity of the compounds according to the invention was studied on the mouse by the Weill method (Weill C.S. Biomed. J. 8 249 (1952)). […] For the compound of formula (I) wherein n=1 and R, R¹ equal to H, the LD₅₀ is higher than 2000 mg/kg.

In the case of `C[N+](C)(C)CCOP(=O)([O-])OP(=O)(O)OCC(O)CO` (stereo not drawn) [choline α-glyceryl disphosphate], the LD50 was > 2000 mg/kg.
